Data taken from patent US20120245159A1, “COMPOSITION AND METHOD FOR CONTROLLING ARTHROPOD PESTS” (SUMITOMO CHEMICAL COMPANY, LIMITED, priority 2009, published 2012).

Tests used:
[1] = test system: cotton aphid (Aphis gossypii); experiment: Test Example 1: pesticidal effect against cotton aphid by spray treatment (cucumber leaf disk, control value); format: in vivo; conditions: composition of the compound and clothianidin; spray over cucumber leaf disk, 25° C., 5 days; summary of Table 43
Method: A commercially available clothianidin water-soluble agent, manufactured by Sumitomo Chemical Co., Ltd. under the product name of Dantotsu (registered trademark) water-soluble agent, as the neonicotinoide compound was diluted with water. […] In a well of 24-well plate containing agar, a cucumber leaf disk was put on the agar and about 15 cotton aphids (Aphis gossypii) were released on the leaf disk. The test chemical solution (20 μl/well) was sprayed over the leaf disk, followed by storage in a constant-temperature breeding room at 25° C. for 5 days, and then the number of surviving aphids was checked. A control value (%) was calculated by the following equation. […] wherein symbols represents the following meanings. Cb: Number of bugs in non-treated group before treatment Cai: Number of bugs in a non-treated group on observation Tb: Number of bugs in treated group before treatment Tai: Number of bugs in treated group on observation

[2] = test system: brown planthopper (Nilaparvata lugens); experiment: Test Example 2: pesticidal effect against brown planthopper by foliage spray treatment of rice (control value); format: in vivo; conditions: foliage spray of rice seedlings, third-instar larvae, after 5 days
[3] = composition of the compound and clothianidin, summary of Table 44
[4] = composition of the compound and dinotefuran, summary of Table 48
[5] = composition of the compound and imidacloprid, summary of Table 47
[6] = composition of the compound and nitenpyram, summary of Table 45
[7] = composition of the compound and thiamethoxam, summary of Table 46

Row | SMILES | pesticidal efficacy against cotton aphid (Aphis gossypii) [1] | pesticidal efficacy against brown planthopper (Nilaparvata lugens) [2, 3] | pesticidal efficacy against brown planthopper (Nilaparvata lugens) [2, 4] | pesticidal efficacy against brown planthopper (Nilaparvata lugens) [2, 5] | pesticidal efficacy against brown planthopper (Nilaparvata lugens) [2, 6] | pesticidal efficacy against brown planthopper (Nilaparvata lugens) [2, 7]
1 | FC(F)(F)c1ccc2oc(-c3ccncc3)nc2c1 [Compound 13, 2-(pyridin-4-yl)-5-(trifluoromethyl)benzoxazole] | high pesticidal efficacy |  |  |  |  | 
2 | FC(F)(F)c1ccc2oc(-c3ccncc3Cl)nc2c1 [Compound 18, 2-(3-chloropyridin-4-yl)-5-(trifluoromethyl)benzoxazole] | high pesticidal efficacy | high pesticidal efficacy | high pesticidal efficacy | high pesticidal efficacy | high pesticidal efficacy | high pesticidal efficacy
3 | Cc1c[n+]([O-])ccc1-c1nc2cc(C(F)(F)F)ccc2o1 [Compound 24, 3-methyl-4-[5-(trifluoromethyl)benzoxazole-2-yl]pyridine N-oxide] | high pesticidal efficacy |  |  |  |  | 
4 | CCc1cnccc1-c1nc2cc(C(F)(F)F)ccc2o1 [Compound 35, 2-(3-ethylpyridin-4-yl)-5-(trifluoromethyl)benzoxazole] | high pesticidal efficacy |  |  |  |  | 
5 | CSc1cnccc1-c1nc2cc(C(F)(F)F)ccc2o1 [Compound 40, 2-[3-(methylthio)pyridin-4-yl]-5-(trifluoromethyl)benzoxazole] | high pesticidal efficacy |  |  |  |  | 
6 | FC(F)(F)C(F)(F)c1ccc2oc(-c3ccncc3)nc2c1 [Compound 65, 5-(pentafluoroethyl)-2-(pyridin-4-yl)-benzoxazole] | high pesticidal efficacy |  |  |  |  | 
7 | CC(C)Oc1cnccc1-c1nc2cc(C(F)(F)F)ccc2o1 [Compound 70, 2-(3-isopropoxypyridin-4-yl)-5-(trifluoromethyl)benzoxazole] | high pesticidal efficacy | high pesticidal efficacy | high pesticidal efficacy | high pesticidal efficacy | high pesticidal efficacy | high pesticidal efficacy
8 | FC(F)(F)Sc1ccc2oc(-c3ccncc3Cl)nc2c1 [Compound 77, 2-(3-chloropyridin-4-yl)-5-(trifluoromethylthio)benzoxazole] | high pesticidal efficacy | high pesticidal efficacy | high pesticidal efficacy | high pesticidal efficacy | high pesticidal efficacy | high pesticidal efficacy
9 | COc1cnccc1-c1nc2cc3c(cc2o1)C(F)(F)OC3(F)F [Compound 88, 5,5,7,7-tetrafluoro-2-(3-methoxypyridin-4-yl)-5,7-dihydro-furo[3′,4′:4,5]benzo[1,2-d]oxazole] | high pesticidal efficacy |  |  |  |  | 
10 | CCc1cnccc1-c1nc2cc(OC(F)(F)F)ccc2o1 [Compound 109, 2-(3-ethylpyridin-4-yl)-5-(trifluoromethoxy)benzoxazole] |  | high pesticidal efficacy | high pesticidal efficacy | high pesticidal efficacy | high pesticidal efficacy | high pesticidal efficacy
11 | FC(F)COc1cnccc1-c1nc2cc(C(F)(F)F)ccc2o1 [Compound 110, 2-[3-(2,2-difluoroethoxy)pyridin-4-yl]-5-(trifluoromethyl)benzoxazole] | high pesticidal efficacy |  |  |  |  | 
12 | FC(F)(F)c1ccc2oc(-c3ccncc3-c3cccnc3)nc2c1 [Compound 128, 4-(5-trifluoromethyl-benzoxazole-2-yl)-[3,3′]bipyridinyl] | high pesticidal efficacy | high pesticidal efficacy | high pesticidal efficacy | high pesticidal efficacy | high pesticidal efficacy | high pesticidal efficacy
13 | CC(C)N(C)c1cnccc1-c1nc2cc(C(F)(F)F)ccc2o1 [Compound 132, isopropyl-methyl-{4-[5-(trifluoromethyl)benzoxazole-2-yl]pyridin-3-yl}amine] | high pesticidal efficacy |  |  |  |  | 
14 | CCS(=O)(=O)c1cnccc1-c1nc2cc(C(F)(F)F)ccc2o1 [Compound 133, 2-[3-(ethanesulfonyl)pyridin-4-yl]-5-(trifluoromethyl)benzoxazole] | high pesticidal efficacy |  |  |  |  | 
15 | FC(F)(F)c1cnc2oc(-c3ccncc3)nc2c1 [Compound 138, 2-pyridin-4-yl-6-(trifluoromethyl)oxazolo[5,4-b]pyridine] | high pesticidal efficacy |  |  |  |  | 
16 | FC(F)(F)c1cnc2oc(-c3ccncc3Cl)nc2c1 [Compound 139, 2-(3-chloropyridin-4-yl)-6-(trifluoromethyl)oxazolo[5,4-b]pyridine] |  | high pesticidal efficacy | high pesticidal efficacy | high pesticidal efficacy | high pesticidal efficacy | high pesticidal efficacy
17 | [O-][n+]1ccc(-c2nc3cc(C(F)(F)F)cnc3o2)c(Cl)c1 [Compound 140, 2-(3-chloro-1-oxypyridin-4-yl)-6-(trifluoromethyl)oxazolo[5,4-b]pyridine] | high pesticidal efficacy |  |  |  |  | 
18 | CCc1cnccc1-c1nc2cc(C(F)(F)F)cnc2o1 [Compound 143, 2-(3-ethylpyridin-4-yl)-6-(trifluoromethyl)oxazolo[5,4-b]pyridine] | high pesticidal efficacy | high pesticidal efficacy | high pesticidal efficacy | high pesticidal efficacy | high pesticidal efficacy | high pesticidal efficacy
19 | FC(F)(F)c1cnc2oc(-c3ccncc3C(F)(F)F)nc2c1 [Compound 144, 6-trifluoromethyl-2-[3-(trifluoromethyl)pyridin-4-yl]-oxazolo[5,4-b]pyridine] | high pesticidal efficacy |  |  |  |  | 
20 | CSc1cnccc1-c1nc2cc(C(F)(F)F)cnc2o1 [Compound 146, 2-(3-methylthiopyridin-4-yl)-6-(trifluoromethyl)oxazolo[5,4-b]pyridine] | high pesticidal efficacy | high pesticidal efficacy | high pesticidal efficacy | high pesticidal efficacy | high pesticidal efficacy | high pesticidal efficacy
21 | CCS(=O)(=O)c1cnccc1-c1nc2cc(C(F)(F)F)cnc2o1 [Compound 150, 2-[3-(ethanesulfonyl)pyridin-4-yl]-6-(trifluoromethyl)oxazolo[5,4-b]pyridine] | high pesticidal efficacy |  |  |  |  | 
